# According to patent publication US20250082766A1, “TREATMENT OF BRAIN TUMORS BY TARGETING THE CHOLESTEROL PATHWAY IN ASTROCYES” (Ramot at Tel-Aviv University Ltd., priority 2022, published 2025):
# “Also recorded” adds a separate entry of the source.
# Columns and labels:
# GL261 glioma (GBM) = assay: Primary GBM model: GL261 intracranially implanted mice treated with Probucol; format: in vivo, mouse; settings: for tumor growth (IVIS): Probucol 30 mg/kg daily from day 10 (quarter of HED) vs vehicle, FIG. 16B
# Protocol: (FIG. 16A) Illustration of the experimental design for primary and recurrent GBM models. (FIGS. 16B-D) WT mice were intracranially (IC) implanted with GL261 cells. Tumor-bearing mice were treated daily, starting at day 10, with Probucol (30 mg/kg) or vehicle. (FIG. 16B) Tumor growth curve as determined by IVIS, (FIG. 16C) mice weight loss, and (FIG. 16D) Kaplan-Meier curves assess overall survival. p-value by Two-way ANOVA. Data represent Mean±SEM, 8 mice/group. (FIG. 16E) Illustration of the predicted effects of probucol or glyburide in the different models/disease stages.
# For intracranial mouse glioma, mice were anesthetized, positioned in a Stereotaxic Alignment System, and injected with 1.5×10^4 GL261 or CT-2A cells in 2 μl of DMEM. Injections were made to the right frontal lobe, approximately 2.5 mm lateral and 0.1 mm caudal from bregma at a depth of 3 mm. In-vivo bioluminescence imaging, following XenoLight D-luciferin Potassium Salt administration (150 mg/kg) i.p. administration, was determined using IVIS Spectrum system (PerkinElmer). Ganciclovir (GCV, Cymevene, Roche #SAP-10051872; 25 mg/kg), Diphtheria-toxin (DT, Sigma-Aldrich, #D0564; 1100 ng/mice), or vehicle control (PBS) were administered daily following tumor establishment (day 10), as previously described (Mayo, L., et al. Nat Med (2014) 20: 1147-1156). CD8^+ T cell depletion was performed using an anti-CD8 monoclonal antibody ([…], Bioxcell) or an isotype control monoclonal antibody (2A3, Bioxcell), as previously described (Takenaka, M. C. et al. Control of tumor-associated macrophages and T cells in glioblastoma via AHR and CD39. Nat Neurosci 22, 729-740 (2019)). GBM-bearing mice were intraperitoneally injected (0.1 mg/mouse) with an anti-CD8 or an isotype control mAbs, 1 day before, and 7 days after, GCV administration. CD8 T-cell depletion was validated by FACS analysis using a Sony SH800 FACS instrument (Sony Biotechnology). Data analysis was performed using FlowJo v10 (TreeStar, USA). The following reagents were used for analysis: anti-CD45 (1:100; 30-F11, Biolegend, #103106), anti-CD3[…] (1:50; 145-2C11, Biolegend #100335), and anti-CD8a (1:100; 53-6.7, Biolegend, #100765).
# To investigate this hypothesis, C57Bl/6 mice are implanted with GFP^+ luciferase-expressing glioma cells (GL261 or CT-2A), using two subtype models—primary or recurrent GBM/brain tumor resection (as illustrated in FIG. 16A), and are treated daily with probucol, glyburide, or vehicle control, with or without a potent statin (e.g., simvastatin as shown in FIG. 15A). The dosage of the different drugs is optimized based on FDA guidelines for conversions from human-accepted dosages (Table 5 below).
# In the primary GBM model (pGBM)—10 days after tumor implantation, the mice are treated with cholesterol-lowering drugs (FIG. 16A). In the recurrent GBM model (rGBM), 12-14 days after inoculation of the mice with the tumor cells, the visible tumor(s) are surgically removed, based on GFP expression, under a stereoscope. The mice are then allowed to recover for a week and then are treated with cholesterol-lowering drugs (FIG. 16A). Of note, tumor formation or recurrence is monitored by bioluminescence (BLI) signals from the tumor cells on in-vivo imaging system (IVIS) spectrum and quantified with Living Image software. Mice are monitored for tumor growth, peritumoral brain edema formation, and mouse survival until the experimental endpoint (extreme lethargy or body weight reduction of greater than 20%), or are euthanized seven days after treatment with the cholesterol-lowering drugs to assess tumor burden, angiogenesis, BBB stability, and immunomodulatory activity in-situ. Tumor volume is evaluated in-vivo by determining tumor BLI, and by histopathology analysis postmortem. Peritumoral brain edema is evaluated in-vivo using IVISense™ Edema (Superhance™ 680) fluorescent probe. […]
# GL261-Luc2 glioma (GBM) = assay: GL261-Luc2 implanted mice treated with probucol, TMZ or both; format: in vivo, mouse; settings: FIGS. 20A-C
# Protocol: WT mice were IC implanted with GL261-Luc2 cells. […] (FIG. 20A) Tumor growth curve as determined by IVIS, (FIG. 20B) mice weight loss, and (FIG. 20C) Kaplan-Meier curves assess overall survival. p-value by Two-way ANOVA. Data represent Mean±SEM, 8 mice/group.
# For intracranial mouse glioma, mice were anesthetized, positioned in a Stereotaxic Alignment System, and injected with 1.5×10^4 GL261 or CT-2A cells in 2 μl of DMEM. Injections were made to the right frontal lobe, approximately 2.5 mm lateral and 0.1 mm caudal from bregma at a depth of 3 mm. In-vivo bioluminescence imaging, following XenoLight D-luciferin Potassium Salt administration (150 mg/kg) i.p. administration, was determined using IVIS Spectrum system (PerkinElmer). Ganciclovir (GCV, Cymevene, Roche #SAP-10051872; 25 mg/kg), Diphtheria-toxin (DT, Sigma-Aldrich, #D0564; 1100 ng/mice), or vehicle control (PBS) were administered daily following tumor establishment (day 10), as previously described (Mayo, L., et al. Nat Med (2014) 20: 1147-1156). CD8^+ T cell depletion was performed using an anti-CD8 monoclonal antibody (53.6-7, Bioxcell) or an isotype control monoclonal antibody (2A3, Bioxcell), as previously described (Takenaka, M. C. et al. Control of tumor-associated macrophages and T cells in glioblastoma via AHR and CD39. Nat Neurosci 22, 729-740 (2019)). GBM-bearing mice were intraperitoneally injected (0.1 mg/mouse) with an anti-CD8 or an isotype control mAbs, 1 day before, and 7 days after, GCV administration. CD8 T-cell depletion was validated by FACS analysis using a Sony SH800 FACS instrument (Sony Biotechnology). Data analysis was performed using FlowJo v10 (TreeStar, USA). The following reagents were used for analysis: anti-CD45 (1:100; 30-F11, Biolegend, #103106), anti-CD3□ (1:50; 145-2C11, Biolegend #100335), and anti-CD8a (1:100; 53-6.7, Biolegend, #100765).
# [1] = target: cholesterol transporter ABCA1 (Homo sapiens, UniProt O95477); settings: cited from earlier work
# [2] = system: GL261 and CT-2A glioma cells; assay: Cell viability assay (Annexin V/DAPI FACS) of glioma cells; format: cell-based, mouse; set-up: glioma viability: dose or concentration left out as unconfirmed; settings: lovastatin, 3 day treatment; CT-2A and GL261; FIGS. 11G-H
# Protocol: FIGS. 5A-N illustrate that astrocyte-derived cholesterol supports glioma survival. (FIGS. 5A-D) Real-time changes in the ECAR (FIGS. 5A-B) and oxygen consumption rate (OCR) (FIGS. 5C-D) of GL261 glioma cells, cultured in media supplemented with full serum (FCS, fetal calf serum) or lipoprotein-deprived serum (LPDS, Lipoprotein-deficient serum) for 18 hours and measured using Seahorse. Oligo, oligomycin; FCCP, carbonyl cyanide4-(trifluoromethoxy) phenylhydrazone; R/A, rotenone plus antimycin A; 2-DG, 2-deoxy-d-glucose. Glycolysis, glycolytic capacity and glycolytic reserve were extracted from the ECAR reading, and basal respiration, adenosine triphosphate (ATP) production, Maximal respiration, and spare respiratory capacity were determined based on OCR. Data are representative of two independent experiments (n=6 technical replicates per experiment). (FIG. 5E) Percentage of cell death of GL261 and CT-2A glioma cells, or primary astrocytes, cultured in FCS or LPDS for 5 days; as determined by Annexin-V assay (n=5 independent experiments). […] Representative flow cytometry plots of Annexin-V/DAPI staining from each group are shown in FIG. 5F and quantification analyses of cholesterol rescue are in FIG. 5G (n=5 biologically independent experiments). (FIGS. 5H-K) Representative images and quantification of LDLR expression (Immunoblot, FIGS. 5H-I) and cell death via FACS analysis of Annexin V/DAPI staining (FIGS. 5J-K) in response to endogenous LXR agonists (24-OHC) or Mock (DMSO) treatment in GL261 and CT-2A cells (n=3 biologically independent experiments). […] (FIGS. 5L-M) Representative flow cytometry plots of murine GL261 and CT-2A glioma cells co-cultured for 5 days with primary mouse astrocytes are shown in FIG. 5L and quantification analyses in FIG. 5M (n=4 biologically independent experiments). (FIG. 5N) quantification analyses of human U87EGFRvIII (U87) glioma cells co-cultured with human primary astrocytes for 5 days (n=3 biologically independent experiments). […]
# primary astrocytes = assay: Cell viability assay (Annexin V/DAPI FACS) of primary astrocytes; format: cell-based, mouse; set-up: dose or concentration left out as unconfirmed; settings: lovastatin, 3 day treatment; FIGS. 11G-H
# Source text: FIGS. 11A-K illustrate that astrocyte-derived cholesterol supports glioma survival. (FIG. 11A) Representative immunofluorescence images of cholesterol accumulation (Filipin III, white) in the GBM tumor (tdTomato^+ GL261 cells, red), Tumor margins are indicated in yellow (n=3 biologically independent samples). Scale bars, 400 μm (right), 150 μm (left). (FIGS. 11B-E) Real-time changes in the ECAR (FIGS. 11B-C) and OCR (FIGS. 11D-E) of CT-2A glioma cells, cultured in media supplemented with full serum (FCS) or lipoprotein-deprived serum (LPDS) for 18 hours and measured using Seahorse. […] Glycolysis, glycolytic capacity and glycolytic reserve are extracted from ECAR reading, and basal respiration, ATP production, Maximal respiration, and spare respiratory capacity were determined based on OCR. […] (FIGS. 11I-J) Representative immunoblot and quantification analyses comparing LDLR protein levels in with CT-2A and GL261 cells cluttered for 2 days in FCS or LPDS supplemented media. […] P values were determined by two-sided Student's t-tests (FIGS. 11B-E and 11I-K) or by one-way ANOVA, followed by Fisher's LSD post-hoc analysis (FIGS. 11G-H). *P<0.05, **P<0.01, ***P<0.001.
# GL261, CT-2A, or astrocytes were seeded at a density of 1.5×10^5 cells per well in a 6-well plate. […] Microglial cell death was determined by LDH Assay (Sigma-Aldrich, #4744934001) according to the manufacturer's instructions. […]
# [3] = summary statement on ABCA1 inhibitors, FIGS. 16A-E
# cholesterol transporter ABCA1, sequence (O95477 whole entry): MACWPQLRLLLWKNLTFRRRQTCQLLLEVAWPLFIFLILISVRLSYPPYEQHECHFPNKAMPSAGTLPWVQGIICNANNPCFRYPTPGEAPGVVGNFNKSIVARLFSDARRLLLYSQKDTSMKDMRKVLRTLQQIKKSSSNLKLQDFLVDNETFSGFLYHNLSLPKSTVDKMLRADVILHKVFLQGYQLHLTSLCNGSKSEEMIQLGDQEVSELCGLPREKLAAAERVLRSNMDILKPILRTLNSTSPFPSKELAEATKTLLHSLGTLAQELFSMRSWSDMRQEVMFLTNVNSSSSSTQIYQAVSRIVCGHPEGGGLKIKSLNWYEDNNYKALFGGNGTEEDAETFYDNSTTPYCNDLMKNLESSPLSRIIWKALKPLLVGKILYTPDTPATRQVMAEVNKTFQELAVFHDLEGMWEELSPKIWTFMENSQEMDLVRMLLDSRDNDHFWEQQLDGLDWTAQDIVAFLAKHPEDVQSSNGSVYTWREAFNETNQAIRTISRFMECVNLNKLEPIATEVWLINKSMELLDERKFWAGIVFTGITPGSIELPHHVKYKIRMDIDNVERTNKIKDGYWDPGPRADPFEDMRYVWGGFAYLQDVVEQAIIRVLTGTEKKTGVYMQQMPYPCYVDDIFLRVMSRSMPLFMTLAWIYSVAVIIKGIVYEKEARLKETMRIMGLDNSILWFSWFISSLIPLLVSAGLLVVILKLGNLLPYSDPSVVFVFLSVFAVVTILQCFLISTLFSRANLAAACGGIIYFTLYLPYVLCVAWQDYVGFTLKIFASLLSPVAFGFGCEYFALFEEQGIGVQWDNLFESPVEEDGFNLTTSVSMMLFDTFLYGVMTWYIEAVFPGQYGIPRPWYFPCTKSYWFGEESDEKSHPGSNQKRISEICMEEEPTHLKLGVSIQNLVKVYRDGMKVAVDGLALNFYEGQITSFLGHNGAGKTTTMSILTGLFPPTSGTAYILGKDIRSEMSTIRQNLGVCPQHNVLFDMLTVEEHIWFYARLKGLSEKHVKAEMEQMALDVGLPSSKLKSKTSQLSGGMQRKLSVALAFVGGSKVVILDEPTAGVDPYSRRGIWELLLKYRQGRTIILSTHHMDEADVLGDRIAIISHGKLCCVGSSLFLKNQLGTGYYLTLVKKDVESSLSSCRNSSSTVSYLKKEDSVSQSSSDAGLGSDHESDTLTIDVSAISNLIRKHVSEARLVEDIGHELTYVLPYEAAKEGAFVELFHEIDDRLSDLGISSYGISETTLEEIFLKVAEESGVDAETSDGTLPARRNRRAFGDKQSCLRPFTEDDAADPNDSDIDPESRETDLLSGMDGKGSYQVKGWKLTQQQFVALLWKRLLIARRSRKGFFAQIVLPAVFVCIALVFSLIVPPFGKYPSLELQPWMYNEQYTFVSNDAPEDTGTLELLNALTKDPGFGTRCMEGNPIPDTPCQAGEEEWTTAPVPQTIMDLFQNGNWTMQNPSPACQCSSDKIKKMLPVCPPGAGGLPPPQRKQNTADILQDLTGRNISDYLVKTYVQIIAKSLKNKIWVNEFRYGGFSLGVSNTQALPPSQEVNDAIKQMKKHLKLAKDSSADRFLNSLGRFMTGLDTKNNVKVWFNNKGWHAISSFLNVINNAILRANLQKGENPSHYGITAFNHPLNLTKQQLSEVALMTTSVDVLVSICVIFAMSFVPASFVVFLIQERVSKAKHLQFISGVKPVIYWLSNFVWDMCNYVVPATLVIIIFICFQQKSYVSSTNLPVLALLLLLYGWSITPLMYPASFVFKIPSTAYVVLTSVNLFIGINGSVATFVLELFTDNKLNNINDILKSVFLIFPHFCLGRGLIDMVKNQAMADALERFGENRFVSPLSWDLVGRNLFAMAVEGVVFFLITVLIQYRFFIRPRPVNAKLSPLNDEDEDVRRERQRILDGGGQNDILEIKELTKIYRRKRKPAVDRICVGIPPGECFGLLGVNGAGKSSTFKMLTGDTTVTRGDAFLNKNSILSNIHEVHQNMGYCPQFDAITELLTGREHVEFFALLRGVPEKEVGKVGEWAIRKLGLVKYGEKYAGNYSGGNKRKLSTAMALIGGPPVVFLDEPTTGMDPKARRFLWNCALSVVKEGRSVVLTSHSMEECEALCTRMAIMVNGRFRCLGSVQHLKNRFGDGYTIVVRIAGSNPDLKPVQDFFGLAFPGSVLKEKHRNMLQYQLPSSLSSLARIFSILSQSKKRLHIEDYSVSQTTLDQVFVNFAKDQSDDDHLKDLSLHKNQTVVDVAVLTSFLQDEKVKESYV
SMILES,tumor growth (IVIS) (GL261 glioma (GBM); GL261-bearing WT mice),"tumor growth (IVIS) (GL261 glioma (GBM); GL261-bearing WT mice, listed as probucol)","weight loss associated with tumor burden (GL261 glioma (GBM); GL261-bearing WT mice, Probucol 30 mg/kg daily from day 10 vs vehicle, FIG. 16C)","survival (Kaplan-Meier) (GL261 glioma (GBM); GL261-bearing WT mice, Probucol 30 mg/kg daily from day 10 vs vehicle, FIG. 16D)",survival of subjects having GBM in-vivo (GL261 glioma (GBM); [3]),tumor size of subjects having GBM in-vivo (GL261 glioma (GBM); [3]),weight loss of subjects having GBM in-vivo (GL261 glioma (GBM); [3]),"therapeutic effect (potency) of TMZ (GL261-Luc2 glioma (GBM); probucol 30 mg/kg combined with TMZ 2.5 mg/kg, GL261-Luc2 bearing mice)","GBM pathogenicity (GL261-Luc2 glioma (GBM); probucol 30 mg/kg, limited course (two days before, during and two days after TMZ course), from day 10)",ABCA1 inhibitor potency [1],glioma viability [2],cell death of primary astrocytes (primary astrocytes)
CC(C)(Sc1cc(C(C)(C)C)c(O)c(C(C)(C)C)c1)Sc1cc(C(C)(C)C)c(O)c(C(C)(C)C)c1 [Probucol],attenuates GBM progression,significantly attenuated,significantly attenuated,improved,prolonging survival,decreasing tumor size,preventing weight loss,enhances the potency of TMZ therapeutic; also recorded: dramatically enhanced the therapeutic effect of TMZ,able to halt GBM pathogenicity,strong,,
"CC[C@H](C)C(=O)O[C@H]1C[C@@H](C)C=C2C=C[C@H](C)[C@H](CC[C@@H]3C[C@@H](O)CC(=O)O3)[C@H]21 [lovastatin, Lovastatin]",,,,,,,,,,,did not affect glioma viability,significant cell death of primary astrocytes
